Here are results for one compound from patent US11135320B2, “Radioligands for pretargeted pet imaging and methods of their therapeutic use” (priority 2015, dated 2021).

The nature of series [1]: In vivo stability of ^64Cu-Tz-SarAr (intact fraction in blood). Also on record: species or system athymic nude mice. On the procedure: Healthy athymic nude mice were injected with ^64Cu-Tz-SarAr (300-350 μCi) via intravenous tail vein injection. After 15 min, 1 h, or 4 h, the mice were sacrificed via CO2 asphyxiation, and their blood (500 μL) was collected via cardiac puncture in heparinized 1.7 mL microcentrifuge tubes. These tubes were then centrifuged at 10,000 rpm for 10 minutes to separate plasma from red-blood cells. After 10 minutes, the plasma supernatant was then transferred to a new 1.7 mL microcentrifuge tube and placed on ice. Subsequently, 500 μL of ice-cold CH3CN was added to the plasma to precipitate the proteins, and the tubes were vortexed briefly and centrifuged again for 10 min at 10,000 rpm. After this centrifugation, the supernatant was carefully removed and transferred to another 1.7 mL microcentrifuge tube, in which it was subjected to another round of centrifugation at 10,000 rpm for 10 min. After this final centrifugation, the supernatant was again transferred to a clean 1.7 mL microcentrifuge tube. This solution was then analyzed via radio-TLC methods using reverse-phase C18 TLC plates and a mobile phase of 1:1 CH3CN:water (each with 0.1% TFA). Using this method, any free ^64Cu^2+ will remain at the baseline, while ^64Cu-Tz-SarAr and other metabolites will travel up the TLC plate. The fraction of intact ^64Cu-Tz-SarAr was calculated by dividing the integral of the parent compound peak over the integral of the entire radio-TLC chromatogram. All experiments were performed in triplicate.

The nature of series [2]: Blood residence time of ^64Cu-Tz-SarAr in healthy mice. The format is in vivo, athymic nude mice. To be noted: for Activity in Blood: healthy mice. The method, then: The radioligand was excreted rapidly via the bladder and kidneys, and the activity concentrations in the large intestine—a critical source of background noise in clinical colorectal cancer imaging—remained remarkably low (e.g., 0.07±0.01% ID/g at 1 h post-injection). Additional experiments were conducted to further interrogate the in vivo performance of ^64Cu-Tz-SarAr.

In the case of `NC12CNCCNCC(NCc3ccc(CNC(=O)CCCC(=O)NCc4ccc(-c5nncnn5)cc4)cc3)(CNCCNC1)CNCCNC2.[64Cu+2]` [^64Cu-Tz-SarAr], the figures for the “% Intact in blood” value in series [1] (15 min post-injection), in series [1] (1 h post-injection) and in series [1] (4 h post-injection) were 96.8±0.8%, 82.0±3.3% and 29.0±5.9%, respectively. Besides, in series [2] (biexponential fit, greater than 99% of the radioligand), the “half-life of clearance from the blood” value was around 16 min. Besides, the “Activity in Blood” value in series [2] (15 min) is 3.02 ± 1.10 % ID/g; in series [2] (30 min) it was 1.55 ± 0.21 % ID/g; in series [2] (1 h) it was 0.42 ± 0.11 % ID/g; in series [2] (4 h), 0.15 ± 0.01 % ID/g; in series [2] (12 h), 0.12 ± 0.03 % ID/g; in series [2] (24 h), 0.06 ± 0.01 % ID/g. Moreover, the blood residence time in series [2] (vast majority of the radioligand) is around 16 min.
